Reference: the CheMixHub viscosity set
± gives the uncertainty stated by the source.

Assay: xn = mol fraction of the nth substance listed

CCOc1ccccc1 + CCCCCO
viscosity [mPa·s], 101.3 kPa
Conditions	x1 = 0.0998	x1 = 0.1989	x1 = 0.3012	x1 = 0.3999	x1 = 0.5004	x1 = 0.6001	x1 = 0.7013	x1 = 0.7997	x1 = 0.9021
293.15 K	3.281 ± 0.078	2.682 ± 0.067	2.196 ± 0.057	1.866 ± 0.051	1.631 ± 0.046	1.494 ± 0.044	1.42 ± 0.043	1.379 ± 0.042	1.371 ± 0.042
298.15 K	2.882 ± 0.071	2.372 ± 0.061	1.953 ± 0.053	1.646 ± 0.047	1.423 ± 0.043	1.299 ± 0.04	1.245 ± 0.039	1.232 ± 0.039	1.228 ± 0.039
308.15 K	2.152 ± 0.056	1.785 ± 0.049	1.486 ± 0.044	1.256 ± 0.039	1.121 ± 0.037	1.032 ± 0.035	0.9978 ± 0.034	0.9914 ± 0.034	0.9892 ± 0.034
318.15 K	1.691 ± 0.048	1.381 ± 0.042	1.155 ± 0.037	1.01 ± 0.035	0.9175 ± 0.033	0.8405 ± 0.031	0.8318 ± 0.031	0.8317 ± 0.031	0.8269 ± 0.031

COC(=O)CC(C)=O + CCCCCO
viscosity [mPa·s], 101.33 kPa
Conditions	x1 = 0.1031	x1 = 0.2056	x1 = 0.3072	x1 = 0.4083	x1 = 0.5091	x1 = 0.6099	x1 = 0.7075	x1 = 0.8063	x1 = 0.9019
298.15 K	2.467 ± 0.058	2.053 ± 0.049	1.796 ± 0.043	1.637 ± 0.04	1.52 ± 0.037	1.439 ± 0.035	1.408 ± 0.034	1.408 ± 0.034	1.449 ± 0.035
303.15 K	2.156 ± 0.051	1.809 ± 0.043	1.588 ± 0.038	1.453 ± 0.035	1.356 ± 0.033	1.294 ± 0.032	1.268 ± 0.031	1.275 ± 0.031	1.313 ± 0.032
308.15 K	1.903 ± 0.046	1.606 ± 0.039	1.419 ± 0.035	1.3 ± 0.032	1.223 ± 0.03	1.175 ± 0.029	1.156 ± 0.029	1.164 ± 0.029	1.201 ± 0.03

CCOC(C)=O + CCCCO
298.15 K
Conditions	viscosity [mPa·s]
101 kPa, x2 = 0.12	0.48 ± 0.005
101 kPa, x2 = 0.23	0.51 ± 0.005
101 kPa, x2 = 0.34	0.578 ± 0.006
101 kPa, x2 = 0.44	0.648 ± 0.007
101 kPa, x2 = 0.54	0.79 ± 0.008
101 kPa, x2 = 0.64	0.987 ± 0.01
101 kPa, x2 = 0.73	1.165 ± 0.011
101 kPa, x2 = 0.83	1.425 ± 0.014
101 kPa, x2 = 0.91	1.815 ± 0.018
101.33 kPa, x2 = 0.1338	0.468 ± 0.004
101.33 kPa, x2 = 0.2522	0.517 ± 0.004
101.33 kPa, x2 = 0.3724	0.599 ± 0.005
101.33 kPa, x2 = 0.4809	0.691 ± 0.006
101.33 kPa, x2 = 0.5952	0.838 ± 0.007
101.33 kPa, x2 = 0.7033	1.041 ± 0.008
101.33 kPa, x2 = 0.801	1.331 ± 0.01
101.33 kPa, x2 = 0.8918	1.741 ± 0.013
